Source: ChEMBL document CHEMBL2073979, “Molecular cloning and characterization of a new multispecific organic anion transporter from rat brain” (J Biol Chem, 1999)

Legend:
[1] = target: T1, Organic anion transporter 3 (Rattus norvegicus, UniProt Q9R1U7); assay: TP_TRANSPORTER: inhibition of E1S uptake (E1S: 40 uM, Probenecid: 1000 uM) in Xenopus laevis oocytes; assay type: functional, cell-based; conditions: oocyte
T1 sequence (Q9R1U7 whole entry): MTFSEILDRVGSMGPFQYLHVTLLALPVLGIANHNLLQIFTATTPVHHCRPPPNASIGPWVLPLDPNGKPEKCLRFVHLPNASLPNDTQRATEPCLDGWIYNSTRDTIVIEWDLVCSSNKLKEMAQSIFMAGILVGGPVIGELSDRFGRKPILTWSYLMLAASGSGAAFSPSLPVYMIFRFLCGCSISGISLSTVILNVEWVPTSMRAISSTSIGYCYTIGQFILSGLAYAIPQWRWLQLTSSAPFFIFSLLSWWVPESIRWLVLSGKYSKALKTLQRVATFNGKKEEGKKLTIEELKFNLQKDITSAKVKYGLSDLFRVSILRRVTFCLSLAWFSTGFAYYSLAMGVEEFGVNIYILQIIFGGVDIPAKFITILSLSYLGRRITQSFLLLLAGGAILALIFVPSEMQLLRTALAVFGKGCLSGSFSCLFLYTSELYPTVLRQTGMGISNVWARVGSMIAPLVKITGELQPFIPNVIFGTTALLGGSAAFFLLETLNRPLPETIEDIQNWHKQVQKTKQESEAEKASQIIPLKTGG

[2] = target: T1, Organic anion transporter 3; assay: TP_TRANSPORTER: inhibition of E1S uptake (E1S: 40 uM, DIDS: 1000 uM) in Xenopus laevis oocytes; assay type: functional, cell-based; conditions: oocyte
[3] = target: T1, Organic anion transporter 3; assay: TP_TRANSPORTER: inhibition of E1S uptake (E1S: 40 uM, Ouabain: 1000 uM) in Xenopus laevis oocytes; assay type: functional, cell-based; conditions: oocyte
[4] = target: T1, Organic anion transporter 3; assay: TP_TRANSPORTER: inhibition of E1S uptake (E1S: 40 uM, Piroxicam: 1000 uM) in Xenopus laevis oocytes; assay type: functional, cell-based; conditions: oocyte
[5] = target: T1, Organic anion transporter 3; assay: TP_TRANSPORTER: inhibition of E1S uptake (E1S: 40 uM, Indomethacin: 1000 uM) in Xenopus laevis oocytes; assay type: functional, cell-based; conditions: oocyte
[6] = target: T1, Organic anion transporter 3; assay: TP_TRANSPORTER: inhibition of E1S uptake (E1S: 40 uM, Malatonin: 1000 uM) in Xenopus laevis oocytes; assay type: functional, cell-based; conditions: oocyte
[7] = target: T1, Organic anion transporter 3; assay: TP_TRANSPORTER: inhibition of E1S uptake (E1S: 40 uM, Furosemide: 1000 uM) in Xenopus laevis oocytes; assay type: functional, cell-based; conditions: oocyte
[8] = target: T1, Organic anion transporter 3; assay: TP_TRANSPORTER: inhibition of E1S uptake (E1S: 40 uM, BSP: 1000 uM) in Xenopus laevis oocytes; assay type: functional, cell-based; conditions: oocyte
[9] = target: T1, Organic anion transporter 3; assay: (§1) TP_TRANSPORTER: uptake in Xenopus laevis oocytes; assay type: functional, cell-based, Oocyte; conditions: oocyte
[10] = target: T2, Organic anion transporter 3 (OAT3) (Rattus norvegicus, UniProt Q9R1U7); assay: as §1; assay type: functional, cell-based, Oocyte
T2 sequence (Q9R1U7 whole entry): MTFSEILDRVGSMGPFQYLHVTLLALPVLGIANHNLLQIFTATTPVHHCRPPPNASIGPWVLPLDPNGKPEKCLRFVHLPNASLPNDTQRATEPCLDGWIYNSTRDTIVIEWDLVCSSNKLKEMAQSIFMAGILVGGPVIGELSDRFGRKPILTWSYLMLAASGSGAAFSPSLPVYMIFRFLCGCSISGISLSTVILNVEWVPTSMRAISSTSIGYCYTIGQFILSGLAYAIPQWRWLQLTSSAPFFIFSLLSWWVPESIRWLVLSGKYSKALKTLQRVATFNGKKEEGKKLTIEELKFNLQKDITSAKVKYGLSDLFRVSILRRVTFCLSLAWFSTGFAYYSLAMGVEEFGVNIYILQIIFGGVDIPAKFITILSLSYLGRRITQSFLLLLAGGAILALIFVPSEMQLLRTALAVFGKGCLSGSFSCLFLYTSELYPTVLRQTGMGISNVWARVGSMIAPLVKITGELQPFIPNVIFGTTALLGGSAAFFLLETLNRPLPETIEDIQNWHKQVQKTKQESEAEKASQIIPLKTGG

[11] = target: T1, Organic anion transporter 3; assay: TP_TRANSPORTER: inhibition of E1S uptake (E1S: 40 uM, AZT: 1000 uM) in Xenopus laevis oocytes; assay type: functional, cell-based; conditions: oocyte
[12] = target: T1, Organic anion transporter 3; assay: TP_TRANSPORTER: inhibition of E1S uptake (E1S: 40 uM, Bumetanide: 1000 uM) in Xenopus laevis oocytes; assay type: functional, cell-based; conditions: oocyte
[13] = target: T1, Organic anion transporter 3; assay: TP_TRANSPORTER: inhibition of E1S uptake (E1S: 40 uM, MTX: 1000 uM) in Xenopus laevis oocytes; assay type: functional, cell-based; conditions: oocyte
[14] = target: T1, Organic anion transporter 3; assay: TP_TRANSPORTER: inhibition of E1S uptake (E1S: 40 uM, Cefoperazone: 1000 uM) in Xenopus laevis oocytes; assay type: functional, cell-based; conditions: oocyte
[15] = target: T1, Organic anion transporter 3; assay: TP_TRANSPORTER: inhibition of E1S uptake (E1S: 40 uM, ICG: 1000 uM) in Xenopus laevis oocytes; assay type: functional, cell-based; conditions: oocyte
[16] = substrate: Nc1ccc(C(=O)NCC(=O)O)cc1; assay: as §1; assay type: functional, cell-based, Oocyte
[17] = substrate: C[C@]12CC[C@@H]3c4ccc(OS(=O)(=O)O)cc4CC[C@H]3[C@@H]1CCC2=O; assay: as §1; assay type: functional, cell-based, Oocyte

For `CCCN(CCC)S(=O)(=O)c1ccc(C(=O)O)cc1` [PROBENECID], the Activity [1] was “inhibitor [(at a rough estimate) 15 % of control]”.

With `O=S(=O)(O)c1cc(N=C=S)ccc1/C=C/c1ccc(NC=S)cc1S(=O)(=O)O` the Activity [2] was “inhibitor [(at a rough estimate) 10 % of control]”.

In the case of `C[C@@H]1O[C@@H](O[C@H]2C[C@@H](O)[C@]3(CO)[C@H]4[C@H](O)C[C@]5(C)[C@@H](C6=CC(=O)OC6)CC[C@]5(O)[C@@H]4CC[C@]3(O)C2)[C@H](O)[C@H](O)[C@H]1O` [OUABAIN], the Activity [3] is reported as “is not an inhibitor [-]”.

With `CN1C(C(=O)Nc2ccccn2)=C(O)c2ccccc2S1(=O)=O` [PIROXICAM] the Activity [4] was “inhibitor [(at a rough estimate) 10 % of control]”.

For `COc1ccc2c(c1)c(CC(=O)O)c(C)n2C(=O)c1ccc(Cl)cc1` [INDOMETHACIN], the Activity [5] was “is not an inhibitor [-]”.

With `COc1ccc2[nH]cc(CCNC(C)=O)c2c1` [MELATONIN] the Activity [6] was “inhibitor [(at a rough estimate) 10 % of control]”.

`NS(=O)(=O)c1cc(C(=O)O)c(NCc2ccco2)cc1Cl` [FUROSEMIDE] was tested, and the Activity [7] was “inhibitor [(at a rough estimate) 10 % of control]”.

In the case of `O=C1OC(c2ccc(O)c(S(=O)(=O)[O-])c2)(c2ccc(O)c(S(=O)(=O)[O-])c2)c2c(Br)c(Br)c(Br)c(Br)c21.[Na+].[Na+]` [SULFOBROMOPHTHALEIN SODIUM], the Activity [8] is reported as “inhibitor [(at a rough estimate) 5 % of control]”.

With `CN/C(=N/CCSCc1nc[nH]c1C)NC#N` [CIMETIDINE] the Activity [9] was “substrate [+]”.

In the case of `C[C@@H]1Cc2c(Cl)cc(C(=O)N[C@@H](Cc3ccccc3)C(=O)O)c(O)c2C(=O)O1` [3R14S-OCHRATOXIN A], the Km [10] is reported as 0.739 µM.

For `Cc1cn([C@H]2C[C@H](N=[N+]=[N-])[C@@H](CO)O2)c(=O)[nH]c1=O` [ZIDOVUDINE], the Activity [11] was “inhibitor [(at a rough estimate) 20 % of control]”.

`CCCCNc1cc(C(=O)O)cc(S(N)(=O)=O)c1Oc1ccccc1` [BUMETANIDE] was tested, and the Activity [12] was “inhibitor [(at a rough estimate) 20 % of control]”.

With `CN(Cc1cnc2nc(N)nc(N)c2n1)c1ccc(C(=O)N[C@@H](CCC(=O)O)C(=O)O)cc1` [METHOTREXATE] the Activity [13] was “inhibitor [(at a rough estimate) 35 % of control]”.

`CCN1CCN(C(=O)N[C@@H](C(=O)N[C@@H]2C(=O)N3C(C(=O)O)=C(CSc4nnnn4C)CS[C@H]23)c2ccc(O)cc2)C(=O)C1=O` [CEFOPERAZONE] was tested, and the Activity [14] was “inhibitor [(at a rough estimate) 40 % of control]”.

With `CC1(C)C(/C=C/C=C/C=C/C=C2/N(CCCCS(=O)(=O)[O-])c3ccc4ccccc4c3C2(C)C)=[N+](CCCCS(=O)(=O)[O-])c2ccc3ccccc3c21.[Na+]` [INDOCYANINE GREEN] the Activity [15] was “inhibitor [(at a rough estimate) 20 % of control]”.

B1: Organic anion transporter 3 (Rattus norvegicus) (protein)
chain: MTFSEILDRVGSMGPFQYLHVTLLALPVLGIANHNLLQIFTATTPVHHCRPPPNASIGPWVLPLDPNGKPEKCLRFVHLPNASLPNDTQRATEPCLDGWIYNSTRDTIVIEWDLVCSSNKLKEMAQSIFMAGILVGGPVIGELSDRFGRKPILTWSYLMLAASGSGAAFSPSLPVYMIFRFLCGCSISGISLSTVILNVEWVPTSMRAISSTSIGYCYTIGQFILSGLAYAIPQWRWLQLTSSAPFFIFSLLSWWVPESIRWLVLSGKYSKALKTLQRVATFNGKKEEGKKLTIEELKFNLQKDITSAKVKYGLSDLFRVSILRRVTFCLSLAWFSTGFAYYSLAMGVEEFGVNIYILQIIFGGVDIPAKFITILSLSYLGRRITQSFLLLLAGGAILALIFVPSEMQLLRTALAVFGKGCLSGSFSCLFLYTSELYPTVLRQTGMGISNVWARVGSMIAPLVKITGELQPFIPNVIFGTTALLGGSAAFFLLETLNRPLPETIEDIQNWHKQVQKTKQESEAEKASQIIPLKTGG
Molecule B1 has a Km [16] of 64.7 µM and a Km [17] of 2.34 µM.
